Experimental data published in patent publication US20120252729A1, “PTH-CONTAINING THERAPEUTIC/PROPHYLACTIC AGENT FOR OSTEOPOROSIS, CHARACTERIZED IN THAT PTH IS ADMINISTERED ONCE A WEEK IN A UNIT DOSE OF 100 TO 200 UNITS” (ASAHI KASEI PHARMA CORPORATION, priority 2009, published 2012).

Assays:
[1] = in vivo
Description: The serum calcium was measured at the start, after 12 weeks, after 24 weeks, after 48 weeks, and after 72 weeks. Serum calcium standard value: 8.4 to 10.4 mg/dL. The standard concomitant drug (610 mg of calcium, 400 IU of vitamin D3, and 30 mg of magnesium) was taken once a day after dinner from the time of consent to the end of the trial.

[2] = test system: high-risk patients diagnosed with primary osteoporosis; assay: Working Example 2: new (incl. multiple, new+worsening) vertebral fractures by x-ray, test drug 200 units once a week for 72 weeks vs placebo; format: in vivo, human
Description: The above patients also took two tablets of a calcium agent once a day after dinner. […] The preparation contained precipitated calcium carbonate, magnesium carbonate, cholecalciferol (vitamin D3), and the like as components and is marketed under the trade name New Calcichew (trademark) D3″ (sold by: Daiichi Sankyo Health Care, manufactured and sold by: Nitto Pharmaceutical Industries, Ltd.).
The incidence of bone fractures was checked by frontal and lateral x-rays of the fourth thoracic to the fourth lumbar spine taken at the start and every 24 weeks thereafter.
Here, “multiple vertebral fractures” was defined as two or more new vertebral fractures. When the incidence of multiple vertebral fractures (number of cases) was compared in the test drug group (n=261) and control group (n=281) after 72 weeks of administration, it was 2.1% (6 cases) in the control group and 0.8% (2 cases) in the test drug group.

[3] = 200 units weekly, 72 weeks, No. of fractures: five or more
[4] = 200 units weekly, 72 weeks, No. of fractures: four
[5] = 200 units weekly, 72 weeks, No. of fractures: none
[6] = 200 units weekly, 72 weeks, No. of fractures: one
[7] = 200 units weekly, 72 weeks, No. of fractures: three
[8] = 200 units weekly, 72 weeks, No. of fractures: two
[9] = 200 units weekly, after 72 weeks, n=261
[10] = 200 units weekly, history of Alfacalcidol
[11] = 200 units weekly, history of calcitriol
[12] = 200 units weekly, history of calcium L-aspartate
[13] = 200 units weekly, history of calcium lactate
[14] = 200 units weekly, history of elcatonin
[15] = 200 units weekly, history of menatetrenone
[16] = 200 units weekly, history of raloxifene hydrochloride
[17] = 200 units weekly, patients taking glucocorticoid

teriparatide acetate
Corrected serum calcium value after administration, maximum [1]: 11.6 mg/dL | Corrected serum calcium value, range of the average [1]: 9.3 to 9.6 mg/dL | Corrected serum calcium, Mean [1]: 9.5 mg/dL | Corrected serum calcium, Median [1]: 9.5 mg/dL | Manifestation of hypercalcemia or hypercalciuria [1]: No manifestation of hypercalcemia or hypercalciuria was found | Safety in terms of the serum calcium (corrected serum calcium vs control) [1]: equivalent safety in terms of the serum calcium in all groups | Occurrence of new vertebral fractures after 48 weeks ([2]; 200 units weekly, 48 to 72 weeks): no new vertebral fractures occurred after 48 weeks | New vertebral fractures: Incidence (%) [2, 3]: 0.0% | New vertebral fractures: No. of subjects [2, 3]: 0 | New vertebral fractures: Incidence (%) [2, 4]: 0.0% | New vertebral fractures: No. of subjects [2, 4]: 0 | New vertebral fractures: Incidence (%) [2, 5]: 97.3% | New vertebral fractures: No. of subjects [2, 5]: 254 | New vertebral fractures: Incidence (%) [2, 6]: 1.9% | New vertebral fractures: No. of subjects [2, 6]: 5 | New vertebral fractures: Incidence (%) [2, 7]: 0.0% | New vertebral fractures: No. of subjects [2, 7]: 0 | New vertebral fractures: Incidence (%) [2, 8]: 0.8% | New vertebral fractures: No. of subjects [2, 8]: 2 | Lowering of the risk of vertebral fractures (new+worsening) in comparison to the placebo ([2]; 200 units weekly, after 72 weeks): 78.6% | Incidence of vertebral fractures (new+worsening) by Kaplan-Meier estimation ([2]; 200 units weekly, after 72 weeks, FAS): 3.5% | Incidence of multiple vertebral fractures (two or more new vertebral fractures) [2, 9]: 0.8% | Multiple vertebral fractures, number of cases [2, 9]: 2 cases | New vertebral fractures: No. with fractures ([2]; 200 units weekly, complication (diabetes): no): 7 | Incidence of new vertebrae fractures (%) ([2]; 200 units weekly, complication (diabetes): no, after 24 W): 2.8% | Incidence of new vertebrae fractures (%) ([2]; 200 units weekly, complication (diabetes): no, after 48 W): 3.3% | Incidence of new vertebrae fractures (%) ([2]; 200 units weekly, complication (diabetes): no, after 72 W): 3.3% | New vertebral fractures: No. with fractures ([2]; 200 units weekly, complication (diabetes): yes): 0 | Incidence of new vertebrae fractures (%) ([2]; 200 units weekly, complication (diabetes): yes, after 24 W): 0.0% | Incidence of new vertebrae fractures (%) ([2]; 200 units weekly, complication (diabetes): yes, after 48 W): 0.0% | Incidence of new vertebrae fractures (%) ([2]; 200 units weekly, complication (diabetes): yes, after 72 W): 0.0% | New vertebral fractures: No. with fractures ([2]; 200 units weekly, complication (hyperlipidemia): no): 4 | Incidence of new vertebrae fractures (%) ([2]; 200 units weekly, complication (hyperlipidemia): no, after 24 W): 2.2% | Incidence of new vertebrae fractures (%) ([2]; 200 units weekly, complication (hyperlipidemia): no, after 48 W): 3.0% | Incidence of new vertebrae fractures (%) ([2]; 200 units weekly, complication (hyperlipidemia): no, after 72 W): 3.0% | New vertebral fractures: No. with fractures ([2]; 200 units weekly, complication (hyperlipidemia): yes): 3 | Incidence of new vertebrae fractures (%) ([2]; 200 units weekly, complication (hyperlipidemia): yes, after 24 W): 3.2% | Incidence of new vertebrae fractures (%) ([2]; 200 units weekly, complication (hyperlipidemia): yes, after 48 W): 3.2% | Incidence of new vertebrae fractures (%) ([2]; 200 units weekly, complication (hyperlipidemia): yes, after 72 W): 3.2% | New vertebral fractures: No. with fractures ([2]; 200 units weekly, complication (hypertension): no): 3 | Incidence of new vertebrae fractures (%) ([2]; 200 units weekly, complication (hypertension): no, after 24 W): 2.1% | Incidence of new vertebrae fractures (%) ([2]; 200 units weekly, complication (hypertension): no, after 48 W): 3.1% | Incidence of new vertebrae fractures (%) ([2]; 200 units weekly, complication (hypertension): no, after 72 W): 3.1% | New vertebral fractures: No. with fractures ([2]; 200 units weekly, complication (hypertension): yes): 4 | Incidence of new vertebrae fractures (%) ([2]; 200 units weekly, complication (hypertension): yes, after 24 W): 3.1% | Incidence of new vertebrae fractures (%) ([2]; 200 units weekly, complication (hypertension): yes, after 48 W): 3.1% | Incidence of new vertebrae fractures (%) ([2]; 200 units weekly, complication (hypertension): yes, after 72 W): 3.1% | Incidence of new vertebral fractures (%) ([2]; 200 units weekly, creatinine clearance abnormal (<80), after 24 W): 2.8% | Incidence of new vertebral fractures (%) ([2]; 200 units weekly, creatinine clearance abnormal (<80), after 48 W): 3.4% | Incidence of new vertebral fractures (%) ([2]; 200 units weekly, creatinine clearance abnormal (<80), after 72 W): 3.4% | New vertebral fractures: No. with fractures ([2]; 200 units weekly, creatinine clearance at start abnormal (<80)): 6 | New vertebral fractures: No. with fractures ([2]; 200 units weekly, creatinine clearance at start normal (≧80)): 0 | Incidence of new vertebral fractures (%) ([2]; 200 units weekly, creatinine clearance normal (≧80), after 24 W): 0.0% | Incidence of new vertebral fractures (%) ([2]; 200 units weekly, creatinine clearance normal (≧80), after 48 W): 0.0% | Incidence of new vertebral fractures (%) ([2]; 200 units weekly, creatinine clearance normal (≧80), after 72 W): 0.0% | New vertebral fractures: no (patients) [2, 10]: 62 | New vertebral fractures: yes (patients) [2, 10]: 1 | New vertebral fractures: no (patients) [2, 11]: 7 | New vertebral fractures: yes (patients) [2, 11]: 1 | New vertebral fractures: no (patients) [2, 12]: 28 | New vertebral fractures: yes (patients) [2, 12]: 1 | New vertebral fractures: no (patients) [2, 13]: 8 | New vertebral fractures: yes (patients) [2, 13]: 0 | New vertebral fractures: no (patients) [2, 14]: 35 | New vertebral fractures: yes (patients) [2, 14]: 2 | New vertebral fractures: no (patients) [2, 15]: 6 | New vertebral fractures: yes (patients) [2, 15]: 0 | New vertebral fractures: no (patients) [2, 16]: 20 | New vertebral fractures: yes (patients) [2, 16]: 0 | Existence of new vertebral fractures, Fracture: no (patients) [2, 17]: 29 | Existence of new vertebral fractures, Fracture: yes (patients) [2, 17]: 0 | New vertebral fractures: No. with fractures ([2]; 200 units weekly, prior osteoporosis treatment (no)): 4 | Incidence of new vertebral fractures (%) ([2]; 200 units weekly, prior osteoporosis treatment (no), after 24 W): 2.4% | Incidence of new vertebral fractures (%) ([2]; 200 units weekly, prior osteoporosis treatment (no), after 48 W): 3.2% | Incidence of new vertebral fractures (%) ([2]; 200 units weekly, prior osteoporosis treatment (no), after 72 W): 3.2% | New vertebral fractures: No. with fractures ([2]; 200 units weekly, prior osteoporosis treatment (yes)): 3 | Incidence of new vertebral fractures (%) ([2]; 200 units weekly, prior osteoporosis treatment (yes), after 24 W): 2.9% | Incidence of new vertebral fractures (%) ([2]; 200 units weekly, prior osteoporosis treatment (yes), after 48 W): 2.9% | Incidence of new vertebral fractures (%) ([2]; 200 units weekly, prior osteoporosis treatment (yes), after 72 W): 2.9% | New vertebral fractures, No. with fractures ([2]; FAS, 72 weeks): 7 | New vertebral fractures, No. with fractures ([2]; time after administration >24 W-≦48 W): 2 | New vertebral fractures, No. with fractures ([2]; time after administration >48 W-≦72 W): 0 | New vertebral fractures, No. with fractures ([2]; time after administration ≦24 W): 6
